The test system of one data set is A2780. Briefly: Anti-proliferative effect (CellTiter-Glo, 72 h), A2780. Format: cell-based. To be noted: A2780 cells, median, read-out: IC50 antiproliferation assay A2780 [M] (median). In short, it runs like this:
(§1)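 72 h compound treatment, 37 °C humidified; CellTiter-Glo added, 10 min incubation, luminescence read; day 0 plate read in parallel for baseline.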
On the technique in general: Cellular ATP, detected with luciferase, serves as a proxy for viable cell number.

For a further data set, the target named is MCL-1 (Homo sapiens, UniProt Q07820). Nature of the data set: Protein-protein interaction assay MCL-1/Noxa BH3 peptide (MCL-1 assay), TR-FRET. It counts as binding. The following applies: MBP-MCL-1 / Noxa BH3-derived peptide, median. The procedure, abridged: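 IC50 came from a 4-parameter fit of the normalized 665/620 nm TR-FRET ratio (anti-MBP Eu-cryptate/streptavidin-XL665). Compounds (0.1 nM–20 μM, duplicates) were preincubated 10 min at 22 °C with 1 nM MBP-MCL-1 in pH 7 Tris/NaCl/KF buffer, then read after 1 h at 22 °C plus overnight at 4 °C.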
(Time-resolved FRET reads energy transfer from a long-lived donor to a nearby acceptor.)

Data set [1] concerns SUDHL5. Nature of the data set: Induction of caspase-3/7 activity (Caspase-Glo 3/7), SUDHL5. Format: cell-based. To be noted: caspase-3/7 induction, SUDHL5 cells, 3 h treatment, median. The procedure, abridged:
(§2)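 DLBCL lines SUDHL5 and SUDHL10 treated with compounds for 3 h at 37 °C; caspase-3/7 activity read by Caspase-Glo 3/7 luminescence. Medium-only background subtracted; EC50 fitted with bottom fixed at 1 and top fixed at the reference compound's maximal induction.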

The subject of data set [2] is SUDHL10. Nature of the data set: Induction of caspase-3/7 activity (Caspase-Glo 3/7), SUDHL10. Format: cell-based. To be noted: caspase-3/7 induction, SUDHL10 cells, 3 h treatment, median. In short, it runs like this:
as §2

Data set [3] concerns SUDHL5. Nature of the data set: Anti-proliferative effect (CellTiter-Glo, 72 h), SUDHL5. To be noted: SUDHL5 cells, antiproliferation, 72 h incubation, median, read-out: Antiproli SUDHL5 [M] (median). Format: cell-based. In short, it runs like this: as §1
For data set [4], the system named is SUDHL5. Nature of the data set: Induction of cytotoxicity (CellTiter-Glo, 5 h), SUDHL5.
Data set [5] relates to SUDHL10. Nature of the data set: Induction of cytotoxicity (CellTiter-Glo, 5 h), SUDHL10.
[6] abbreviates: read-out: Cytotox SUDHL5 [M] (median), SUDHL5 cells, cytotoxicity induction, CellTiter-Glo, 5 h incubation, median.
[7] abbreviates: read-out: Cytotox SUDHL10 [M] (median), SUDHL10 cells, cytotoxicity induction, CellTiter-Glo, 5 h incubation, median.

In US10981932B2, “Macrocyclic indole derivatives” (Bayer Aktiengesellschaft, priority 2016, dated 2021) one finds IC50 and EC50 data, which are given here for 5 compounds.

Counter-ions that a name gives are not always drawn. Like-named read-outs stand apart in the source and are kept apart here.

Sequence of MCL-1 (Q07820 whole entry): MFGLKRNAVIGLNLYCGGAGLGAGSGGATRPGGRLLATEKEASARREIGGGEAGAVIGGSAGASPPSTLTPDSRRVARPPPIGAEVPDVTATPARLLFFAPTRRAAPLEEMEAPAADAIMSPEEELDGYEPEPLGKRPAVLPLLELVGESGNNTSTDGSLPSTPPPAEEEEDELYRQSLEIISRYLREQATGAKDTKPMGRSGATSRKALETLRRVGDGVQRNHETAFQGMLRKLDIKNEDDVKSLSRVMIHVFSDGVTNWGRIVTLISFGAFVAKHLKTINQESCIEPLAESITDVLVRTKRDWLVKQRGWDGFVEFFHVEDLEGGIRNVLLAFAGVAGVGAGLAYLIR

As to `Cc1nn(C)c2c1-c1cccc3c(CCCOc4cccc5cc(F)ccc45)c(C(=O)O)n(c13)CCCOC2` (single isomer, unassigned; enantiomer 2) [Example 048, 1-{3-[(6-fluoronaphthalen-1-yl)oxy]propyl}-9,11-dimethyl-5,6,8,9-tetrahydro-4H-pyrazolo[4′,3′:8,9][1,5]oxazecino[7,6,5-hi]indole-2-carboxylic acid-N-ethylethanamine Salt (Enantiomer 2)], the IC50 was found to be 1.01e-05 M in the data set on A2780 (Homo sapiens, A2780, 72 h); 0.0136 µM against MCL-1; 4.84e-06 M in the data set on SUDHL5 [3] (Homo sapiens, SU-DHL-5, 72 h); 1.19e-05 M in the data set on SUDHL5 [4] (Homo sapiens, SU-DHL-5, 5 h, read-out: Cytotox SUDHL5 [M] (median), SUDHL5 cells, cytotoxicity induction, CellTiter-Glo, 5 h incubation, median); 1.71e-05 M in the data set with SUDHL10 [5] (Homo sapiens, SU-DHL10, 5 h, read-out: Cytotox SUDHL10 [M] (median), SUDHL10 cells, cytotoxicity induction, CellTiter-Glo, 5 h incubation, median). Further, the EC50 with SUDHL5 [1] (Homo sapiens, SU-DHL-5, 3 h) was determined as 13.2 µM; with SUDHL10 [2] (Homo sapiens, SU-DHL10, 3 h), 17.8 µM.
Take `Cc1c2c(nn1C)COCCCn1c(C(=O)O)c(CCCOc3cccc4ccccc34)c3cccc-2c31` (single isomer, unassigned; enantiomer 2) [Example 065, 10,11-dimethyl-1-[3-(naphthalen-1-yloxy)propyl]-5,6,8,10-tetrahydro-4H-pyrazolo[4′,3′:8,9][1,5]oxazecino[7,6,5-hi]indole-2-carboxylic acid-N-ethylethanamine Salt (Enantiomer 2)]: the IC50 is above 3.3e-05 M in the data set on A2780; 0.0393 µM on MCL-1; 2.61e-05 M in the data set with SUDHL5 [3]; above 3.3e-05 M in the data set with SUDHL5 [4] (setting [6]); above 3.3e-05 M in the data set with SUDHL10 [5] (setting [7]). Further, the EC50 in the data set on SUDHL5 [1] and in the data set on SUDHL10 [2] was above 33 µM each time.
With `CCn1nc(C2CC2)c2c1COCCCCn1c(C(=O)O)c(CCCOc3cccc4ccccc34)c3cccc-2c31` (single isomer, unassigned; enantiomer 2) [Example 090, 3-cyclopropyl-1-ethyl-7-[3-(naphthalen-1-yloxy)propyl]-1,10,11,12,13,15-hexahydropyrazolo[4′3′:9,10][1,6]oxazacycloundecino[8,7,6-hi]indole-8-carboxylic acid-N-ethylethanamine Salt (Enantiomer 2)], the IC50 in the data set with A2780 is 1.98e-05 M; against MCL-1 it was 0.0103 µM; in the data set on SUDHL5 [3], 1.5e-05 M; in the data set on SUDHL5 [4] (setting [6]) it was above 3.3e-05 M; in the data set with SUDHL10 [5] (setting [7]), above 3.3e-05 M. The EC50 in the data set on SUDHL5 [1] and with SUDHL10 [2] was above 33 µM each time.
In the case of `CCc1c2c(nn1C)COCCCCn1c(C(=O)O)c(CCCOc3cccc4ccccc34)c3cccc-2c31` (single isomer, unassigned; enantiomer 2) [Example 149, 3-Ethyl-2-methyl-7-[3-(1-naphthyloxy)propyl]-2,10,11,12,13,15-hexahydropyrazolo[4′,3′:9,10][1,6]oxazacycloundecino[8,7,6-hi]indole-carboxylic acid-N-ethylethanamine Salt (Enantiomer 2)], the IC50 with A2780 was 2.84e-05 M; against MCL-1, 0.0666 µM; with SUDHL5 [3] it was 1.26e-05 M; in the data set on SUDHL5 [4] (setting [6]), above 3.3e-05 M; in the data set on SUDHL10 [5] (setting [7]), above 3.3e-05 M. For the same compound, the EC50 in the data set on SUDHL5 [1] and with SUDHL10 [2] was above 33 µM throughout.
`CCc1c2c(nn1C)COCCCCn1c(C(=O)O)c(CCCOc3cccc4ccccc34)c3ccc(C)c-2c31` (single isomer, unassigned; enantiomer 2) [Example 155, 3-Ethyl-2,4-dimethyl-7-[3-(1-naphthyloxy)propyl]-2,10,11,12,13,15-hexahydropyrazolo[4′,3′:9,10][1,6]oxazacycloundecino[8,7,6-hi]indole-8-carboxylic acid-N-ethylethanamine Salt (Enantiomer 2)]: the IC50 was 2.25e-05 M in the data set with A2780; 0.048 µM against MCL-1; 8.34e-06 M in the data set with SUDHL5 [3]; above 3.3e-05 M with SUDHL5 [4] (setting [6]); above 3.3e-05 M with SUDHL10 [5] (setting [7]). Further, the EC50 in the data set on SUDHL5 [1] and with SUDHL10 [2] was above 33 µM in each case.

As usually defined, the EC50 is the midpoint of the concentration-response curve. Higher therefore signals lower potency in that assay.
